Source: the kinase profiling compilation of Christmann-Franck et al. (2016)

How the values were obtained:
Assay in all cases: radiometric filter-binding kinase assay
AURKB (human) = AURKB (human) (UniProt Q96GD4)
CDK2 CCNA2 (human) = CDK2 CCNA2 (human) (UniProt P20248+P24941)
CHEK2 (human) = CHEK2 (human) (UniProt O96017)
CSK (human) = CSK (human) (UniProt P41240)
CSNK2A1 (human) = CSNK2A1 (human) (UniProt P68400)
EEF2K (human) = EEF2K (human) (UniProt O00418)
EPHB3 (human) = EPHB3 (human) (UniProt P54753)
FGFR1 (human) = FGFR1 (human) (UniProt P11362)
GSK3B (human) = GSK3B (human) (UniProt P49841)
IKBKB (human) = IKBKB (human) (UniProt O14920)
INSRR (human) = INSRR (human) (UniProt P14616)
LCK (mouse) = conditions: accession and sequence are those of the human protein
MAPK1 (human) = MAPK1 (human) (UniProt P28482)
MAPK13 (human) = MAPK13 (human) (UniProt O15264)
MELK (human) = MELK (human) (UniProt Q14680)
MKNK1 (human) = MKNK1 (human) (UniProt Q9BUB5)
MKNK2 (human) = MKNK2 (human) (UniProt Q9HBH9)
MYLK (human) = MYLK (human) (UniProt Q15746)
PHKG1 (human) = PHKG1 (human) (UniProt Q16816)
PRKAA1 or PRKAA2 (rat) = conditions: accession and sequence are those of the human protein
PRKACA (human) = PRKACA (human) (UniProt P17612)
PRKCZ (human) = PRKCZ (human) (UniProt Q05513)
ROCK2 (rat) = conditions: accession and sequence are those of the human protein
RPS6KA1 KD1 KD2 (human) = RPS6KA1 KD1 KD2 (human) (UniProt Q15418)
SRC (human) = SRC (human) (UniProt P12931)

Chain of RPS6KA1 KD1 KD2 (human) (Q15418 whole entry, looked up): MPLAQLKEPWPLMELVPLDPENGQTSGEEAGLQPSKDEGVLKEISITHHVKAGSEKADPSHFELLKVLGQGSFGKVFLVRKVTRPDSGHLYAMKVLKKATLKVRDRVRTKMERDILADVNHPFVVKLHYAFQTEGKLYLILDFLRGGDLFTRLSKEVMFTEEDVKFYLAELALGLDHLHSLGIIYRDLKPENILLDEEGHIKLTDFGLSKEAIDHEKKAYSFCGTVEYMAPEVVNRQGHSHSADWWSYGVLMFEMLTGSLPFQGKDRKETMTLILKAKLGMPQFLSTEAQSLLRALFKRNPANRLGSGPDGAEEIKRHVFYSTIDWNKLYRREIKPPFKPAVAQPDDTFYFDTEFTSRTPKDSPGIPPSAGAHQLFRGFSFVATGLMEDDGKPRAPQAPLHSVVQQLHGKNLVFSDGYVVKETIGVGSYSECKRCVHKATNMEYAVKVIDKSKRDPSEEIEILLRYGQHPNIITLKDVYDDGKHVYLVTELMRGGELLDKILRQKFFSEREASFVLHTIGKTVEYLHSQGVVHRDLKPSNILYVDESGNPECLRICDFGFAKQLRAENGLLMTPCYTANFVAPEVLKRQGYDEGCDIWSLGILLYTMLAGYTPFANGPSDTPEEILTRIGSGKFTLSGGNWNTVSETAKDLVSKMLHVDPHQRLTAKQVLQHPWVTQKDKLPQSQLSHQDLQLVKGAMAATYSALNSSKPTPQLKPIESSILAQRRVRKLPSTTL
Chain of MAPK1 (human) (P28482 whole entry, looked up): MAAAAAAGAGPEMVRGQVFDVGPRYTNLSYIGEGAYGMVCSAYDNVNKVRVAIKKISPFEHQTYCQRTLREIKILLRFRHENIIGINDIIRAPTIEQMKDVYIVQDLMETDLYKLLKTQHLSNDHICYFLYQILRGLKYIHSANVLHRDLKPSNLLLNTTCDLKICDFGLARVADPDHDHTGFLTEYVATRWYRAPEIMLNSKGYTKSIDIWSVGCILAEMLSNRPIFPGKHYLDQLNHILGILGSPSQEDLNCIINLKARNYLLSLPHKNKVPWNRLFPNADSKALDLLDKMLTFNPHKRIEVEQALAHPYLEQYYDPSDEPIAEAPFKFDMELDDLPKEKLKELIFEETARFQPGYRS
Chain of GSK3B (human) (P49841 whole entry, looked up): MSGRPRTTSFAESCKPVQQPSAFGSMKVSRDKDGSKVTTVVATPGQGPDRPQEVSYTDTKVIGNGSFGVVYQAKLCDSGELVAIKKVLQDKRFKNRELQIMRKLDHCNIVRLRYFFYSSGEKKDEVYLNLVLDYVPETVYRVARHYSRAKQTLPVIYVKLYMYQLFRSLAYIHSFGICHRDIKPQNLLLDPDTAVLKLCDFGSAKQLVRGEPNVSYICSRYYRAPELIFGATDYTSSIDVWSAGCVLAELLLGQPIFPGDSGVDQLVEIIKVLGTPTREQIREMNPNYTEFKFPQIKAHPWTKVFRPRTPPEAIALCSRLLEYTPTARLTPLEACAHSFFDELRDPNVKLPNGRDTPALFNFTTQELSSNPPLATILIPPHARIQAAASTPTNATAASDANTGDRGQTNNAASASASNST
Chain of MYLK (human) (Q15746 whole entry, looked up): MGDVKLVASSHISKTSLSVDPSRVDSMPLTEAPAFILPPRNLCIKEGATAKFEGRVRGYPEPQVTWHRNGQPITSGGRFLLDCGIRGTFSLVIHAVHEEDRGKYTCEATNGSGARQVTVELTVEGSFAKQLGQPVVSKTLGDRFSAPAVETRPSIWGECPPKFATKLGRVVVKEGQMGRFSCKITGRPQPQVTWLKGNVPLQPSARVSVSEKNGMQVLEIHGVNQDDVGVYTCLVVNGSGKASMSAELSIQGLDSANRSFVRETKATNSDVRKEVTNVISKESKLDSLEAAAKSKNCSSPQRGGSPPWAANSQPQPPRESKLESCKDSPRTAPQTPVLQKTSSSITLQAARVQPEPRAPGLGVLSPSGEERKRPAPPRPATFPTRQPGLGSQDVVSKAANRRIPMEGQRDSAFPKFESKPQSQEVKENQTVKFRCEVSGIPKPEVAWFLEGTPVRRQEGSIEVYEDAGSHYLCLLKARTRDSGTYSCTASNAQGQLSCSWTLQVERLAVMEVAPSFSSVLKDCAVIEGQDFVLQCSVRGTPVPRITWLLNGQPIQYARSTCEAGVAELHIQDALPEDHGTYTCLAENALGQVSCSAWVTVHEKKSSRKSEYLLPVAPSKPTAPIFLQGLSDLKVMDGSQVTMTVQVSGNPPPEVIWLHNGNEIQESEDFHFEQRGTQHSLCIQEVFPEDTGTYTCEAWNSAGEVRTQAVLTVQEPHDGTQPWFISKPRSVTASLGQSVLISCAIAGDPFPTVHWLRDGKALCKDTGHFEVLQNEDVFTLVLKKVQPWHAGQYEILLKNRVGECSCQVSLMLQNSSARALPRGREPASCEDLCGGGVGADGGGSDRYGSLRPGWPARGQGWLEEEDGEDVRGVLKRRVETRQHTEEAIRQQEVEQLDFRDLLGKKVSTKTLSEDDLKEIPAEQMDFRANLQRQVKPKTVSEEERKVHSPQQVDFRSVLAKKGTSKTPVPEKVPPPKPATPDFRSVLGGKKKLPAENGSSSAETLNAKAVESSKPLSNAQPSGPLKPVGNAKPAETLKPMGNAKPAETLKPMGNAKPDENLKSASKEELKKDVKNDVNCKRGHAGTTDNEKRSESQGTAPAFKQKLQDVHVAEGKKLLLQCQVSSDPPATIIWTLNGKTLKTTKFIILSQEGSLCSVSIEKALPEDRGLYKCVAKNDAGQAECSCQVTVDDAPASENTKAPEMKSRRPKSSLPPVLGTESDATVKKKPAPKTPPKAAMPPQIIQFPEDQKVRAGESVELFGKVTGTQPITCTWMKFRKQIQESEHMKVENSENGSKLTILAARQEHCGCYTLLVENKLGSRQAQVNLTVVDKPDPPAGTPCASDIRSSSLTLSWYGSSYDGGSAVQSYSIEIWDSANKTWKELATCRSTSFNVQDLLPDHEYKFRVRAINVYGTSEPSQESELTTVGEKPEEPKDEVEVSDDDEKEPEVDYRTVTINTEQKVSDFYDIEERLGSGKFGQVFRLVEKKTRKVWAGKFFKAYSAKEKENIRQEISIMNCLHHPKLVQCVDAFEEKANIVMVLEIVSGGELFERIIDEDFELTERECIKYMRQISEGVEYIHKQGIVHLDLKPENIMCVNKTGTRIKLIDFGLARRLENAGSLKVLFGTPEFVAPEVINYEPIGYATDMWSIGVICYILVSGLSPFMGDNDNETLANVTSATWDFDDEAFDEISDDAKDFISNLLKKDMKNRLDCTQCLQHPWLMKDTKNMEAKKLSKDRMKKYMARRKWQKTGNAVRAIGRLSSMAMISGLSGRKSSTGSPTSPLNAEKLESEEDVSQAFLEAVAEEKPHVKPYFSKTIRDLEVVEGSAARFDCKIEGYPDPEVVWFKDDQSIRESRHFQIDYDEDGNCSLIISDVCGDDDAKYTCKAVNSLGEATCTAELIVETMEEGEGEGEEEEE
Chain of EEF2K (human) (O00418 whole entry, looked up): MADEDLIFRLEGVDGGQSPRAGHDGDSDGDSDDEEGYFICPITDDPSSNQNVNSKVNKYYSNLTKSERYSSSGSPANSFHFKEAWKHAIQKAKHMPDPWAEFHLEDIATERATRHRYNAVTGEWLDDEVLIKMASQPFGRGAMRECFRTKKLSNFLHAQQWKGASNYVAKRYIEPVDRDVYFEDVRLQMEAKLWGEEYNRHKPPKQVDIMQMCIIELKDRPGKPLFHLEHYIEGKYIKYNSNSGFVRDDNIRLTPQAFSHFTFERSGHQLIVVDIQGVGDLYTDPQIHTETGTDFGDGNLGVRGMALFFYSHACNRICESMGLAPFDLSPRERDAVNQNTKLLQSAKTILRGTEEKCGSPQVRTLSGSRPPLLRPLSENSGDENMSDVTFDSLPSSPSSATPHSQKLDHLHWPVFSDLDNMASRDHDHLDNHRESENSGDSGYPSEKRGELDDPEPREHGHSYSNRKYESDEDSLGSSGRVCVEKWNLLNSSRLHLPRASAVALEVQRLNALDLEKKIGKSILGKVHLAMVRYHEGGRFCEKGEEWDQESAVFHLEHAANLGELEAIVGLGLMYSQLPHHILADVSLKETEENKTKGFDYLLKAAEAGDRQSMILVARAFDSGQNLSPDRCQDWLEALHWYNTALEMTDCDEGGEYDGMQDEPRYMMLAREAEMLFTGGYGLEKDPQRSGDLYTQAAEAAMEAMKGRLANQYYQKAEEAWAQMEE
Chain of CHEK2 (human) (O96017 whole entry, looked up): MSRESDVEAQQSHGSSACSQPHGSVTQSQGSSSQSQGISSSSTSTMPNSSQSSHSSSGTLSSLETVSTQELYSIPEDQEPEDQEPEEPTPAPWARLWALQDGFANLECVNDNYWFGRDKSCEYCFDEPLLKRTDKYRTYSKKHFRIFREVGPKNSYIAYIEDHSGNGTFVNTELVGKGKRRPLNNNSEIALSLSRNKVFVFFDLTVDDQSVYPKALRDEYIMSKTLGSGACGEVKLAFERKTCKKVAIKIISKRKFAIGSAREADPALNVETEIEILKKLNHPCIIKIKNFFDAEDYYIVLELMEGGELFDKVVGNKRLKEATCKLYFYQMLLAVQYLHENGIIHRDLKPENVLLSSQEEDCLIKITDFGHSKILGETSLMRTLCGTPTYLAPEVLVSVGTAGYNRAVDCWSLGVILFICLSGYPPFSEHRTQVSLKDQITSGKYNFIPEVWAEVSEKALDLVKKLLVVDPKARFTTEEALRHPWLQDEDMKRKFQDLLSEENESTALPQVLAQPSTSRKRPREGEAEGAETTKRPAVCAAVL
Chain of MAPK13 (human) (O15264 whole entry, looked up): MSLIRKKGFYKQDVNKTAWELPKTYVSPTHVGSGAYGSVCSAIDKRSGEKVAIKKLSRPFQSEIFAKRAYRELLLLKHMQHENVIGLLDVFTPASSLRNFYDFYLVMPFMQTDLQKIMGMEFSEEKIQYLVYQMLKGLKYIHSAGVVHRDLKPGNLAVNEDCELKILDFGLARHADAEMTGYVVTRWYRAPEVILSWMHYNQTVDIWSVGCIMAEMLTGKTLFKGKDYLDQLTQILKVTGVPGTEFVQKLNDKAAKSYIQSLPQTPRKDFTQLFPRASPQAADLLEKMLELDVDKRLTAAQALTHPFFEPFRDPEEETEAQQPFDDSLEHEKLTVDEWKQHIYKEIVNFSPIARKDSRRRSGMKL

Cn1c(=O)c2c(ncn2C)n(C)c1=O
residual activity (AURKB (human); compound 0.1 µM): 91%
residual activity (AURKB (human); compound 1.0 µM): 83%
residual activity (CDK2 CCNA2 (human); compound 0.1 µM): 86%
residual activity (CDK2 CCNA2 (human); compound 1.0 µM): 91%
residual activity (CHEK2 (human); compound 0.1 µM): 86%
residual activity (CHEK2 (human); compound 1.0 µM): 83%
residual activity (CSK (human); compound 0.1 µM): 100%
residual activity (CSK (human); compound 1.0 µM): 103%
residual activity (CSNK2A1 (human); compound 0.1 µM): 115%
residual activity (CSNK2A1 (human); compound 1.0 µM): 106%
residual activity (EEF2K (human); compound 0.1 µM): 88%
residual activity (EEF2K (human); compound 1.0 µM): 92%
residual activity (EPHB3 (human); compound 0.1 µM): 92%
residual activity (EPHB3 (human); compound 1.0 µM): 97%
residual activity (FGFR1 (human); compound 0.1 µM): 118%
residual activity (FGFR1 (human); compound 1.0 µM): 112%
residual activity (GSK3B (human); compound 0.1 µM): 102%
residual activity (GSK3B (human); compound 1.0 µM): 101%
residual activity (IKBKB (human); compound 0.1 µM): 90%
residual activity (IKBKB (human); compound 1.0 µM): 100%
residual activity (INSRR (human); compound 0.1 µM): 86%
residual activity (INSRR (human); compound 1.0 µM): 80%
residual activity (LCK (mouse); compound 0.1 µM): 88%
residual activity (LCK (mouse); compound 1.0 µM): 92%
residual activity (MAPK1 (human); compound 0.1 µM): 96%
residual activity (MAPK1 (human); compound 1.0 µM): 101%
residual activity (MAPK13 (human); compound 0.1 µM): 88%
residual activity (MAPK13 (human); compound 1.0 µM): 88%
residual activity (MELK (human); compound 0.1 µM): 98%
residual activity (MELK (human); compound 1.0 µM): 90%
residual activity (MKNK1 (human); compound 0.1 µM): 110%
residual activity (MKNK1 (human); compound 1.0 µM): 99%
residual activity (MKNK2 (human); compound 0.1 µM): 87%
residual activity (MKNK2 (human); compound 1.0 µM): 91%
residual activity (MYLK (human); compound 0.1 µM): 90%
residual activity (MYLK (human); compound 1.0 µM): 91%
residual activity (PHKG1 (human); compound 0.1 µM): 113%
residual activity (PHKG1 (human); compound 1.0 µM): 115%
residual activity (PRKAA1 or PRKAA2 (rat); compound 0.1 µM): 90%
residual activity (PRKAA1 or PRKAA2 (rat); compound 1.0 µM): 98%
residual activity (PRKACA (human); compound 0.1 µM): 103%
residual activity (PRKACA (human); compound 1.0 µM): 96%
residual activity (PRKCZ (human); compound 0.1 µM): 95%
residual activity (PRKCZ (human); compound 1.0 µM): 88%
residual activity (ROCK2 (rat); compound 0.1 µM): 91%
residual activity (ROCK2 (rat); compound 1.0 µM): 93%
residual activity (RPS6KA1 KD1 KD2 (human); compound 0.1 µM): 74%
residual activity (RPS6KA1 KD1 KD2 (human); compound 1.0 µM): 78%
residual activity (SRC (human); compound 0.1 µM): 96%
residual activity (SRC (human); compound 1.0 µM): 88%

C[C@H]1CCCC(=O)CCC/C=C/c2cc(O)cc(O)c2C(=O)O1
residual activity (AURKB (human); compound 1.0 µM): 37%
residual activity (AURKB (human); compound 10.0 µM): 23%
residual activity (CDK2 CCNA2 (human); compound 1.0 µM): 82%
residual activity (CDK2 CCNA2 (human); compound 10.0 µM): 32%
residual activity (CHEK2 (human); compound 1.0 µM): 93%
residual activity (CHEK2 (human); compound 10.0 µM): 73%
residual activity (CSK (human); compound 1.0 µM): 80%
residual activity (CSK (human); compound 10.0 µM): 64%
residual activity (CSNK2A1 (human); compound 1.0 µM): 97%
residual activity (CSNK2A1 (human); compound 10.0 µM): 96%
residual activity (EEF2K (human); compound 1.0 µM): 101%
residual activity (EEF2K (human); compound 10.0 µM): 85%
residual activity (EPHB3 (human); compound 1.0 µM): 85%
residual activity (EPHB3 (human); compound 10.0 µM): 85%
residual activity (FGFR1 (human); compound 1.0 µM): 90%
residual activity (FGFR1 (human); compound 10.0 µM): 51%
residual activity (GSK3B (human); compound 1.0 µM): 47%
residual activity (GSK3B (human); compound 10.0 µM): 11%
residual activity (IKBKB (human); compound 1.0 µM): 101%
residual activity (IKBKB (human); compound 10.0 µM): 78%
residual activity (INSRR (human); compound 1.0 µM): 75%
residual activity (INSRR (human); compound 10.0 µM): 41%
residual activity (LCK (mouse); compound 1.0 µM): 69%
residual activity (LCK (mouse); compound 10.0 µM): 26%
residual activity (MAPK1 (human); compound 1.0 µM): 98%
residual activity (MAPK1 (human); compound 10.0 µM): 96%
residual activity (MAPK13 (human); compound 1.0 µM): 84%
residual activity (MAPK13 (human); compound 10.0 µM): 87%
residual activity (MELK (human); compound 1.0 µM): 97%
residual activity (MELK (human); compound 10.0 µM): 66%
residual activity (MKNK1 (human); compound 1.0 µM): 89%
residual activity (MKNK1 (human); compound 10.0 µM): 46%
residual activity (MKNK2 (human); compound 1.0 µM): 64%
residual activity (MKNK2 (human); compound 10.0 µM): 23%
residual activity (MYLK (human); compound 1.0 µM): 104%
residual activity (MYLK (human); compound 10.0 µM): 59%
residual activity (PHKG1 (human); compound 1.0 µM): 102%
residual activity (PHKG1 (human); compound 10.0 µM): 86%
residual activity (PRKAA1 or PRKAA2 (rat); compound 1.0 µM): 94%
residual activity (PRKAA1 or PRKAA2 (rat); compound 10.0 µM): 60%
residual activity (PRKACA (human); compound 1.0 µM): 97%
residual activity (PRKACA (human); compound 10.0 µM): 91%
residual activity (PRKCZ (human); compound 1.0 µM): 98%
residual activity (PRKCZ (human); compound 10.0 µM): 86%
residual activity (ROCK2 (rat); compound 1.0 µM): 82%
residual activity (ROCK2 (rat); compound 10.0 µM): 81%
residual activity (RPS6KA1 KD1 KD2 (human); compound 1.0 µM): 89%
residual activity (RPS6KA1 KD1 KD2 (human); compound 10.0 µM): 41%
residual activity (SRC (human); compound 1.0 µM): 89%
residual activity (SRC (human); compound 10.0 µM): 34%
